What was measured:
Experiment in all cases: cells
Set-up in all cases: species or system panel of 482 human cancer cell lines; ATPLite luminescence growth inhibition after treatment, nine-point dilution curve, 482 cancer cell lines, 384-well
Settings in all cases: 72 h, recommended growth medium
[1] = tested on: OAW28_OVARY
How it was run: (§1)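 Growth inhibition was measured across a panel of 482 cancer cell lines. Cells were plated at 500 cells per well in recommended growth media in black, tissue culture treated 384-well plates, centrifuged to equilibrate, and incubated 24 h before dosing. Compounds were tested as nine-point dilution curves for 72 h, with viability read by ATPLite luminescence relative to DMSO-treated controls.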

[2] = tested on: MKN45_STOMACH
How it was run: as §1

[3] = tested on: KG1_HAEMATOPOIETIC_AND_LYMPHOID_TISSUE
How it was run: as §1

[4] = tested on: TGBC11TKB_STOMACH
How it was run: as §1

[5] = tested on: NCIH1869_LUNG
How it was run: as §1

[6] = tested on: NCIH2405_LUNG
How it was run: as §1

[7] = tested on: NCIH810_LUNG
How it was run: as §1

[8] = tested on: KYSE510_OESOPHAGUS
How it was run: as §1

[9] = tested on: JHH6_LIVER
How it was run: as §1

[10] = tested on: FARAGE_NS
How it was run: as §1

[11] = tested on: YD10B_UPPER_AERODIGESTIVE_TRACT
How it was run: as §1

[12] = tested on: HCC1195_LUNG
How it was run: as §1

[13] = tested on: HEP3B217_LIVER
How it was run: as §1

[14] = tested on: NCIH661_LUNG
How it was run: as §1

[15] = tested on: NCIH1155_LUNG
How it was run: as §1

[16] = tested on: SKNBE2_AUTONOMIC_GANGLIA
How it was run: as §1

[17] = tested on: NCIH1944_LUNG
How it was run: as §1

GI50 [2]: 0.605 µM
GI50 [12]: 2740 µM
GI50 [13]: 9.96 µM
GI50 [16]: 0.0203 µM
SMILES: CCN(C/C=C/C#CC(C)(C)C)Cc1cccc(OCc2cc(-c3ccsc3)cs2)c1 [NB-598]
GI50 [1]: 65.4 µM
GI50 [3]: 23.9 µM
GI50 [4]: 2.98 µM
GI50 [5]: 0.0152 µM
GI50 [6]: 0.0394 µM
GI50 [7]: 0.00733 µM
GI50 [8]: 0.0731 µM
GI50 [9]: 8.89 µM
GI50 [10]: 0.0142 µM
GI50 [11]: 0.0714 µM
GI50 [14]: 28.9 µM
GI50 [15]: 0.00517 µM
GI50 [17]: 0.0271 µM

Source: PMC6327044, “A chemical biology screen identifies a vulnerability of neuroendocrine cancer cells to SQLE inhibition” (Nature Communications, 2019)
